Assay results taken from patent US8962608B2, “Cycloalkylnitrile pyrazole carboxamides as janus kinase inhibitors” (Merck Sharp & Dohme Corp., priority 2011, dated 2015).

What was measured:
[1] = target: JAK2 (recombinant purified GST-tagged catalytic domain) (Homo sapiens (Human), UniProt O60674); assay: biochemical;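 further: biochemical JAK kinase assay with HTRF detection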
[2] = target: JAK1 (recombinant purified GST-tagged catalytic domain) (Homo sapiens (Human), UniProt P23458); assay: biochemical;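 further: biochemical assay with HTRF read-out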
JAK1 (recombinant purified GST-tagged catalytic domain), sequence (P23458 875-1153): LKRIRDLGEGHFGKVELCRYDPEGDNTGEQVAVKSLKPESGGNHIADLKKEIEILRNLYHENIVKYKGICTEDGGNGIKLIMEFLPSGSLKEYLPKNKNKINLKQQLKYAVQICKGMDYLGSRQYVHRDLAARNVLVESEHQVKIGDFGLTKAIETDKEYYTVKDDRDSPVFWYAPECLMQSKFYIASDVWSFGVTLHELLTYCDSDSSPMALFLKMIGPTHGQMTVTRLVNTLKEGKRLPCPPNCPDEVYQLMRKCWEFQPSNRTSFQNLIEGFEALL

JAK2 (recombinant purified GST-tagged catalytic domain), sequence (O60674 849-1124): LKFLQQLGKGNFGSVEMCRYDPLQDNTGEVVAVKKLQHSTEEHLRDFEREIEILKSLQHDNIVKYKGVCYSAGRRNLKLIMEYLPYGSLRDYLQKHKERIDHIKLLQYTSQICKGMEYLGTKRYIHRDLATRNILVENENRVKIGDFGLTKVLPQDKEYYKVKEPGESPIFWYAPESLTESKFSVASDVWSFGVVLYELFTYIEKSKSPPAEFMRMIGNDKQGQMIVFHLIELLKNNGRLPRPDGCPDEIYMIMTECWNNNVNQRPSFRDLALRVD

Compound | IC50 [1] [nM] | IC50 [2] [nM]
N#C[C@H]1CCCC[C@@H]1n1cc(C(N)=O)c(Nc2ccc(S(=O)(=O)NCc3ccncc3)cc2)n1 (single isomer, unassigned) [Example 17-86, 1-[(1R,2R or 1S,2S)-2-cyanocyclohexyl]-3-({4-[(pyridin-4-ylmethyl)sulfamoyl]phenyl}amino)-1H-pyrazole-4-carboxamide] | 0.95 | 0.25
N#C[C@H]1C[C@H](OCC2CC2)CC[C@H]1n1cc(C(N)=O)c(Nc2ccnc(F)c2)n1 (single isomer, unassigned) [Example 26-3, 1-[(1R,2S,4R or 1S,2R,4S)-2-cyano-4-(cyclopropylmethoxy)cyclohexyl]-3-[(2-fluoropyridin-4-yl)amino]-1H-pyrazole-4-carboxamide] | 150 | 69
CN(C)[C@H]1CC[C@H](n2cc(C(N)=O)c(Nc3ccc(Cl)c(F)c3)n2)[C@@H](C#N)C1 (single isomer, unassigned) [Example 28-41, 3-[(4-chloro-3-fluorophenyl)amino]-1-[(1S,2S,4S or 1R,2R,4R)-2-cyano-4-(dimethylamino)cyclohexyl]-1H-pyrazole-4-carboxamide] | 58 | 2
N#C[C@@H]1CCC[C@@H](O)C1n1cc(C(N)=O)c(Nc2ccccc2)n1 (mixture of isomers) [Example 2-5, 1-[(1R,2R,6R and 1S,2S,6S)-2-cyano-6-hydroxycyclohexyl]-3-(phenylamino)-1H-pyrazole-4-carboxamide] | > 1500 | 700
N#C[C@H]1C[C@H](N2CCC2)CC[C@@H]1n1cc(C(N)=O)c(Nc2ccc(OC(F)(F)F)cc2)n1 (single isomer, unassigned) [Example 28-70, 1-[(1S,2S,4R or 1R,2R,4S)-4-azetidin-1-yl-2-cyanocyclohexyl]-3-{[4-(trifluoromethoxy)phenyl]amino}-1H-pyrazole-4-carboxamide] | 40 | 2
N#C[C@H]1CCCC[C@@H]1n1cc(C(N)=O)c(Nc2ccc(F)c(F)c2)n1 (racemic) [Example 17-100, 1-[(1S,2S and 1R,2R)-2-cyanocyclohexyl]-3-[(3,4-difluorophenyl)amino]-1H-pyrazole-4-carboxamide] | 34 | 4
N#C[C@H]1CCCC[C@@H]1n1cc(C(N)=O)c(Nc2ccnc(C(F)(F)F)c2)n1 (racemic) [Example 17-3, 1-[(1S,2S and 1R,2R)-2-Cyanocyclohexyl]-3-{[2-(trifluoromethyl)pyridin-4-yl]amino}-1H-pyrazole-4-carboxamide] | 123 | 19
N#C[C@H]1C[C@H](O)CC[C@@H]1n1cc(C(N)=O)c(Nc2ccc(C(F)(F)F)nc2)n1 (single isomer, unassigned) [Example 25-10, 1-[(1S,2S,4R or 1R,2R,4S)-2-cyano-4-hydroxycyclohexyl]-3-{[6-(trifluoromethyl)pyridin-3-yl]amino}-1H-pyrazole-4-carboxamide] | 17 | 4
N#C[C@H]1C[C@H](O)CC[C@@H]1n1cc(C(N)=O)c(Nc2ccc(C(F)(F)F)cc2)n1 (single isomer, unassigned) [Example 25-5, 1-[(1S,2S,4R or 1R,2R,4S)-2-cyano-4-hydroxycyclohexyl]-3-{[4-(trifluoromethyl)phenyl]amino}-1H-pyrazole-4-carboxamide] | 10 | 1
CN(C1CCC1)[C@H]1CC[C@@H](n2cc(C(N)=O)c(Nc3ccc(C(F)(F)F)cc3)n2)[C@H](C#N)C1 (single isomer, unassigned) [Example 30-8, l-{(1R,2R,4S or 1S,2S,4R)-2-cyano-4-[cyclo-butyl(methyl)amino]cyclohexyl}-3-{[4-(trifluoro-methyl)phenyl]amino}-1H-pyrazole-4-carboxamide] | 240 | 6
N#C[C@H]1C[C@@H](N2CCC2)CC[C@@H]1n1cc(C(N)=O)c(Nc2ccc(Cl)cc2)n1 (single isomer, unassigned) [Example 28-100, 1-[(1S,2S,4S or 1R,2R,4R)-4-azetidin-1-yl-2-cyanocyclohexyl]-3-[(4-chlorophenyl)amino]-1H-pyrazole-4-carboxamide] | 41 | 0.7
N#C[C@H]1CCCC[C@@H]1n1cc(C(N)=O)c(Nc2cnc3ccc(Cl)cc3c2)n1 (single isomer, unassigned) [Example 17-60, 3-[(6-chloroquinolin-3-yl)amino]-1-[(1S,2S or 1R,2R)-2-cyanocyclohexyl]-1H-pyrazole-4-carboxamide] | 23 | 6
CC(C)(CO)N[C@H]1CCC(n2cc(C(N)=O)c(Nc3ccc(Cl)cc3)n2)[C@@H](C#N)C1 (single isomer, unassigned) [Example 28-210, 3-[(4-chlorophenyl)amino]-1-{(1S,2S,4S or 1R,2R,4R)-2-cyano-4-[(2-hydroxy-1,1-dimethylethyl)amino]cyclo-hexyl}-1H-pyrazole-4-carboxamide] | 41 | 1
CC1CN([C@H]2CC[C@H](n3cc(C(N)=O)c(Nc4ccc(C(F)(F)F)cc4)n3)[C@@H](C#N)C2)C1 (single isomer, unassigned) [Example 28-121, 1-[(1S,2S,4S or 1R,2R,4R)-2-cyano-4-(3-methylazetidin-1-yl)cyclohexyl]-3-{[4-(trifluoromethyl)phenyl]amino}-1H-pyrazole-4-carboxamide] | 61 | 1
CS(=O)(=O)C1CN(C(=O)[C@H]2CC[C@H](n3cc(C(N)=O)c(Nc4ccc(Cl)cc4)n3)[C@@H](C#N)C2)C1 (single isomer, unassigned) [Example 35-26, 3-[(4-chlorophenyl)amino]-1-[(1S,2S,4S or 1R,2R,4R)-2-cyano-4-{[3-(methylsulfonyl)azetidin-1-yl]carbonyl}cyclohexyl]-1H-pyrazole-4-carboxamide] | 49 | 2
N#C[C@H]1C[C@H](O)CC[C@@H]1n1cc(C(N)=O)c(Nc2ccc([C@H](O)C(F)(F)F)cc2)n1 (single isomer, unassigned) [Example 25-13, 1-[(1S,2S,4R or 1R,2R,4S)-2-cyano-4-hydroxycyclohexyl]-3-({4-[(1S or 1R)-2,2,2-trifluoro-1-hydroxyethyl]phenyl}amino)-1H-pyrazole-4-carboxamide] | 3 | 0.25
N#C[C@H]1CCC[C@@H](O)C1n1cc(C(N)=O)c(Nc2ccccc2)n1 (mixture of isomers) [Example 2-6, 1-[(1R,2S,6R and 1S,2R,6S)-2-cyano-6-hydroxycyclohexyl]-3-(phenylamino)-1H-pyrazole-4-carboxamide] | 1000 | 370
N#C[C@H]1C[C@H](N(CC2CC2)CC2CC2)CC[C@@H]1n1cc(C(N)=O)c(Nc2ccc(C(F)(F)F)cc2)n1 (single isomer, unassigned) [Example 30-15, l-{(1S,2S,4R or 1R,2R,4S)-4-[bis(cyclopropylmethyl)amino]-2-cyanocyclohexyl}-3-{[4-(trifluoromethyl)phenyl]amino}-1H-pyrazole-4-carboxamide] | > 1500 | 260
N#C[C@H]1CCCC[C@@H]1n1cc(C(N)=O)c(Nc2ccc(C(F)(F)F)nc2)n1 (single isomer, unassigned) [Example 17-109, 1-[(1S,2S or 1R,2R)-2-cyanocyclohexyl]-3-{[6-(trifluoromethyl)pyridin-3-yl]amino}-1H-pyrazole-4-carboxamide] | 260 | 50
CC(C)(C)NC(=O)[C@@H]1CC[C@@H](n2cc(C(N)=O)c(Nc3ccc(Cl)cc3)n2)[C@H](C#N)C1 (single isomer, unassigned) [Example 35-35, 1-[(1R,2R,4R or 1S,2S,4S)-4-(tert-butylcarbamoyl)-2-cyanocyclohexyl] 3-[(4-chlorophenyl)amino]-1H-pyrazole-4-carboxamide] | 425 | 47
N#C[C@H]1CC(NC(C2CC2)C2CC2)CC[C@@H]1n1cc(C(N)=O)c(Nc2ccc(S(=O)(=O)C(F)(F)F)cc2)n1 (single isomer, unassigned) [Example 28-164, 1-{(1S,2S,4R or 1R,2R,4S)-2-cyano-4-[(dicyclo-propylmethyl)amino]cyclohexyl}-3-({4-[(trifluoro-methyl)sulfonyl]phenyl}amino)-1H-pyrazole-4-carboxamide] | 225 | 4
N#C[C@H]1CCCC[C@@H]1n1cc(C(N)=O)c(Nc2cncc(Cl)c2)n1 (single isomer, unassigned) [Example 17-47, 3-[(5-chloropyridin-3-yl)amino]-1-[(1S,2S or 1R,2R)-2-cyanocyclohexyl]-1H-pyrazole-4-carboxamide] | 39 | 7
N#C[C@H]1C[C@@H](N[C@@H](C2CC2)C(F)(F)F)CC[C@@H]1n1cc(C(N)=O)c(Nc2ccc(C(F)(F)F)cc2)n1 (single isomer, unassigned) [Example 28-194, 1-[(1S,2S,4S or 1R,2R,4R)-2-cyano-4-{[(1S)-1-cyclopropyl-2,2,2-trifluoroethyl]amino}cyclo-hexyl]-3-{[4-(trifluoromethyl)phenyl]amino}-1H-pyrazole-4-carboxamide] | 152 | 4
N#C[C@H]1C[C@@H](O)CC[C@@H]1n1cc(C(N)=O)c(Nc2ccc(C(F)(F)F)nc2)n1 (single isomer, unassigned) [Example 33-9, 1-[(1S,2S,4S or 1R,2R,4R)-2-cyano-4-hydroxycyclohexyl]-3-{[6-(trifluoromethyl)pyridin-3-yl]amino}-1H-pyrazole-4-carboxamide] | 65 | 21
N#C[C@H]1C[C@@H](NC2COC2)CC[C@@H]1n1cc(C(N)=O)c(Nc2ccc(CC(F)(F)F)cc2)n1 (single isomer, unassigned) [Example 28-79, 1-[(1S,2S,4S or 1R,2R,4R)-2-cyano-4-(oxetan-3-ylamino)cyclohexyl]-3-{[4-(2,2,2-trifluoroethyl)phenyl]amino}-1H-pyrazole-4-carboxamide] | 3 | 0.3
